In patent US6440995B1, “Quinolin-4-yl derivatives” (Hoffman-La Roche Inc., priority 1999, dated 2002):
Counter-ions that a name gives are not always drawn.

target: T1, NMDA receptor (Rattus norvegicus, UniProt P35439+Q00960); assay: 3H-Ro 25-6981 binding (displacement, rat brain membranes); conditions: displacement of 5 nM 3H-Ro 25-6981; rat whole brain minus cerebellum and medulla oblongata membranes; 2 hours at 4° C., pH 7.4
T1 construct: Membranes were prepared by homogenization of the whole brain minus cerebellum and medulla oblongata; from tissue; host or cells: rat whole brain minus cerebellum and medulla oblongata, membranes
T1 sequence (Q00960 27-1482, other chains not shown): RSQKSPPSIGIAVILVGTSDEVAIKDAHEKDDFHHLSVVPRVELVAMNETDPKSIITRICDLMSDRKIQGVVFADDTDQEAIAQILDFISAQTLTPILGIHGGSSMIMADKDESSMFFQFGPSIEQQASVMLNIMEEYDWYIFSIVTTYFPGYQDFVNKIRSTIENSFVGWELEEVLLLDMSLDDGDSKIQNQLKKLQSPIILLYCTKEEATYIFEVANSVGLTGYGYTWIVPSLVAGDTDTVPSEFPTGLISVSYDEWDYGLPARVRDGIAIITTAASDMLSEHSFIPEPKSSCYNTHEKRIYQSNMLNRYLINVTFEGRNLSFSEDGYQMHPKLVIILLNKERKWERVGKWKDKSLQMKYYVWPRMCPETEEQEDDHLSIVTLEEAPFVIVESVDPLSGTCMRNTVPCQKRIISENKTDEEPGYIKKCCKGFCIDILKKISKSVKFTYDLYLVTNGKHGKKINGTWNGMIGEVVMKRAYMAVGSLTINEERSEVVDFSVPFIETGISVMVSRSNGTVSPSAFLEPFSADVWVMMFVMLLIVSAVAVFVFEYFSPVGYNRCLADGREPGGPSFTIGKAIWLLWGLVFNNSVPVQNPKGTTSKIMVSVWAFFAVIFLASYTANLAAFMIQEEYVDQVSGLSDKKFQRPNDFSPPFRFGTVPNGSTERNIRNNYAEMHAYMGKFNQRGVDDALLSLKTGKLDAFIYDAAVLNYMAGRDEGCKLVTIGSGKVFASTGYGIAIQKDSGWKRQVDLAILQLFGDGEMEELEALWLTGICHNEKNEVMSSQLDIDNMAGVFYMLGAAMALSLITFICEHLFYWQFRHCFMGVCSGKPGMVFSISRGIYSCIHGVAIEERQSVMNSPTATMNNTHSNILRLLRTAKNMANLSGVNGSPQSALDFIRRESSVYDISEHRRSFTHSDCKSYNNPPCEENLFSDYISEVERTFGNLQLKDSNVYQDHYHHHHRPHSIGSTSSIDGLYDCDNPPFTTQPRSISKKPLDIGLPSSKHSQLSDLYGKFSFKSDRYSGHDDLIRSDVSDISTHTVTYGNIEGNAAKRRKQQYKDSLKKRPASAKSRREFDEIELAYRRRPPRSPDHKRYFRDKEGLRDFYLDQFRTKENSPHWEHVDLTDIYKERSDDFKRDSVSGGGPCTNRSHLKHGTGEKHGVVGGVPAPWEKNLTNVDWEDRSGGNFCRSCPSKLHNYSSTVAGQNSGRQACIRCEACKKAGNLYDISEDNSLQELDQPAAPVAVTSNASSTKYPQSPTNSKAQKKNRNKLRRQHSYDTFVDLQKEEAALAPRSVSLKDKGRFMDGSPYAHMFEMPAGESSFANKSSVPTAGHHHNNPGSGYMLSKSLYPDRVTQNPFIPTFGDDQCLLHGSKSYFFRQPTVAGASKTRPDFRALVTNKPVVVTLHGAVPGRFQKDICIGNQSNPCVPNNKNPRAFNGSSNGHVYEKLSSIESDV
Protocol: 3H-Ro 25-6981 binding (Ro 25-6981 is [R-(R*,S*)]-a-(4-Hydroxy-phenyl)-b-methyl-4-(phenyl-methyl)-1-piperidine propanol)
Male Füllinsdorf albino rats weighing between 150-200 g were used. Membranes were prepared by homogenization of the whole brain minus cerebellum and medulla oblongata with a Polytron (10 000 rpm, 30 seconds), in 25 volumes of a cold Tris-HCl 50 mM, EDTA 10 mM, pH 7.1 buffer. The homogenate was centrifuged at 48.000 g for 10 minutes at 4° C. The pellet was resuspended using the Polytron in the same volume of buffer and the homogenate was incubated at 37° C. for 10 minutes. After centrifugation the pellet was homogenized in the same buffer and frozen at −80° C. for at least 16 hours but not more than 10 days. For the binding assay the homogenate was thawed at 37° C., centrifuged and the pellet was washed three times as above in a Tris-HCl 5 mM, pH 7.4 cold buffer. The final pellet was resuspended in the same buffer and used at a final concentration of […].
3H-Ro 25-6981 binding experiments were performed using a Tris-HCl 50 mM, pH 7.4 buffer. For displacement experiments 5 nM of 3H-Ro 25-6981 were used and non specific binding was measured using 10 mM of tetrahydroisoquinoline and usually it accounts for 10% of the total. The incubation time was 2 hours at 4° C. and the assay was stopped by filtration on Whatmann GF/B glass fiber filters (Unifilter-96, Packard, Zürich, Switzerland). The filters were washed 5 times with cold buffer. The radioactivity on the filter was counted on a Packard Top-count microplate scintillation counter after addition of […] of microscint 40 (Canberra Packard S.A., Zürich, Switzerland).
The effects of compounds were measured using a minimum of 8 concentrations and repeated at least once. The pooled normalized values were analyzed using a non-linear regression calculation program which provide IC50) with their relative upper and lower 95% confidence limits (RS1, BBN, USA).

SMILES	IC50
Cc1ccc(-c2cc(NCC(O)CN)c3ccccc3n2)cc1.Cl (racemic) [Example 2, (RS)-1-Amino-3-(2-p-tolyl-quinolin-4-ylamino)-propan-2-ol hydrochloride]	20 nM
NCC(O)CNc1cc(N2CCc3ccccc3C2)nc2ccccc12 (racemic) [Example 10, (RS)-1-Amino-3-[2-(3,4-dihydro-1H-isoquinolin-2-yl)-quinolin-4-ylamino]-propan-2-ol hydrochloride]	30 nM
OCC(O)CNc1cc(-c2ccc3c(c2)CCO3)nc2ccccc12 (racemic) [Example 32, (RS)-3-[2-(2,3-Dihydro-benzofuran-5-yl)-quinolin-4-ylamino]-propane-1,2-diol hydrochloride]	66 nM
CNCC(O)CNc1cc(-c2ccc(OC)cc2)nc2ccccc12 (racemic) [Example 77, (RS)-1-[2-(4-Methoxy-phenyl)-quinolin-4-ylamino]-3-methylamino-propan-2-ol hydrochloride]	58 nM
Cl.OCCNc1cc(-c2ccc3c(c2)CCCC3)nc2ccccc12 [Example 18, 2-[2-(5,6,7,8-Tetrahydro-naphthalen-2-yl)-quinolin-4-ylamino]-ethanol hydrochloride]	40 nM
COc1ccc(-c2cc(N(C)CCO)c3ccccc3n2)cc1.Cl [Example 46, 2-{[2-(4-Methoxy-phenyl)-quinolin-4-yl]-methyl-amino}-ethanol hydrochloride]	130 nM

system: not given; assay: not given; conditions: not given

SMILES	melting point
Cc1ccc(-c2cc(NC[C@H](C)O)c3ccc(C)cc3n2)cc1.Cl	264 to 267 °C
C[C@H](O)CNc1cc(-c2ccc3c(c2)CCO3)nc2ccccc12.Cl	236 to 242 °C
Cl.OCCNc1cc(-c2ccc(Cl)cc2)nc2ccccc12	262 to 264 °C
COc1ccc(-c2cc(NCCO)c3ccc(C)cc3n2)cc1.Cl	233 to 238 °C
COc1cccc2c(NCCO)cc(-c3ccccc3)nc12.Cl	205 to 209 °C
Cc1ccc(-c2cc(NCCO)c3ccc(C)cc3n2)cc1.Cl	260 to 263 °C
CCNCC(O)COc1cc(-c2ccccc2)nc2ccccc12.Cl (stereo not shown)	170 to 174 °C
CNCC(O)COc1cc(-c2ccc(C)cc2)nc2cc(C)ccc12 (racemic)	146 to 150 °C
CNCC(O)COc1cc(-c2ccccc2)nc2cc(Cl)ccc12.Cl (racemic)	192 to 193 °C
CNCC(O)COc1cc(-c2ccsc2)nc2ccccc12.Cl (racemic)	236 to 238 °C
O=C(O)/C=C/C(=O)O.OCC(O)CNc1cc(/C=C/c2ccccc2)nc2ccccc12 (racemic)	220 to 222 °C
Cc1ccc(-c2cc(NCC(O)CO)c3ccccc3n2)cc1Cl.Cl (racemic)	230 to 231 °C
Cl.Cl.NCC(O)CNc1cc(-c2ccc(Cl)cc2)nc2ccccc12 (racemic)	283 to 287 °C
Cl.OCC(O)CNc1cc(N2Cc3ccccc3C2)nc2ccccc12 (racemic)	295 to 301 °C
Cl.NCC(O)CNc1cc(-c2ccccc2)nc2ccccc12 (racemic)	291 to 294 °C
COc1cccc2c(NCC(O)CO)cc(-c3ccccc3)nc12.Cl (racemic)	110 to 116 °C
Cl.OCC(O)CNc1cc(-c2cc3ccccc3o2)nc2ccccc12 (racemic)	263 to 265 °C
Cc1cccc(-c2cc(NCC(O)CO)c3ccccc3n2)c1.Cl (racemic)	208 to 215 °C
NCC(O)CNc1cc(-c2ccc(Cl)cc2)nc2ccccc12 (racemic)	283 to 287 °C
Cl.OCC(O)CNc1cc(-c2ccccc2)nc2ccccc12 (racemic)	225 to 227 °C
CC(O)CNc1cc(-c2ccccc2)nc2ccccc12.Cl (racemic)	251 to 253 °C
Cl.OCC(O)CNc1cc(CCc2ccccc2)nc2ccccc12 (racemic)	143 to 145 °C
CC(C)NCC(O)COc1cc(-c2ccccc2)nc2ccccc12 (racemic)	109 to 111 °C
CNCC(O)COc1cc(-c2ccc(OC)cc2)nc2cc(C)ccc12 (racemic)	140 to 142 °C
OCC(O)CNc1cc(-c2ccc3c(c2)CCO3)nc2ccccc12 (racemic) (as salt: hydrochloride) [Example 32, (RS)-3-[2-(2,3-Dihydro-benzofuran-5-yl)-quinolin-4-ylamino]-propane-1,2-diol hydrochloride]	267 to 270 °C
Cc1ccc(-c2cc(NCC(O)CN)c3ccccc3n2)cc1.Cl (racemic) [Example 2, (RS)-1-Amino-3-(2-p-tolyl-quinolin-4-ylamino)-propan-2-ol hydrochloride]	264 to 272 °C
Cl.OCCNc1cc(-c2ccc3c(c2)CCCC3)nc2ccccc12 [Example 18, 2-[2-(5,6,7,8-Tetrahydro-naphthalen-2-yl)-quinolin-4-ylamino]-ethanol hydrochloride]	250 to 252 °C
COc1ccc(-c2cc(N(C)CCO)c3ccccc3n2)cc1.Cl [Example 46, 2-{[2-(4-Methoxy-phenyl)-quinolin-4-yl]-methyl-amino}-ethanol hydrochloride]	201 to 204 °C
